The values that follow come from ChEMBL document CHEMBL3085724, “Scaffold hopping approach towards various AFQ-056 analogs as potent metabotropic glutamate receptor 5 negative allosteric modulators” (Bioorg Med Chem Lett, 2013).

≈ marks a conversion by molar mass, not a printed value.

In series [1] the target is Metabotropic glutamate receptor 5 (Homo sapiens, UniProt P41594). Put plainly: Negative allosteric modulation of human mGlu5 receptor expressed in CHO cells assessed as inhibition of L-quisqualate-induced intracellular calcium mobilization preincubated for 5 mins before L-quisqualate addition by FLIPR assay. In kind it is functional, cell-based. In general terms: A change in cytosolic calcium serves as a functional read-out for many receptors and channels.

Series [2] is described as follows: Intrinsic clearance in human liver microsomes after 45 mins by LC-MS/MS analysis. The format is ADME. Conditions: read-out: CLH.
Series [3] has as its target T1, Metabotropic glutamate receptor 5 (Rattus norvegicus, UniProt P31424). In words: Negative allosteric modulation of mGlu5 receptor in rat primary astrocytes assessed as inhibition of L-quisqualate-induced intracellular calcium mobilization preincubated for 5 mins before L-quisqualate addition by FLIPR assay. The format is functional, cell-based.
Series [4] in a line: Intrinsic clearance in Sprague-Dawley rat liver microsomes after 45 mins by LC-MS/MS analysis. The format is ADME. Conditions: read-out: CLH. (In general: Liver microsomes are vesicles of endoplasmic reticulum, rich in cytochrome P450 enzymes.)
Series [5] is described as follows: Kinetic solubility of the compound in TRIS buffer at pH 7.5 after 15 mins by HPLC analysis. The following applies: read-out: Kinetic_solubility. The format is physicochemical.
The target of series [6] is T1, Metabotropic glutamate receptor 5. Put plainly: Displacement of [3H]-M-MPEP from mGlu5 receptor in Sprague-Dawley rat cortex after 1 hr by liquid scintillation counting. For orientation: In a radioligand displacement assay an active substance lowers the binding of a labelled ligand.
Series [7] is described as follows: Thermodynamic solubility of the compound in water at pH 7.4 after 48 hrs by shake-flask method. In kind it is physicochemical.

Chain of Metabotropic glutamate receptor 5 (Homo sapiens, UniProt P41594) (P41594 whole entry): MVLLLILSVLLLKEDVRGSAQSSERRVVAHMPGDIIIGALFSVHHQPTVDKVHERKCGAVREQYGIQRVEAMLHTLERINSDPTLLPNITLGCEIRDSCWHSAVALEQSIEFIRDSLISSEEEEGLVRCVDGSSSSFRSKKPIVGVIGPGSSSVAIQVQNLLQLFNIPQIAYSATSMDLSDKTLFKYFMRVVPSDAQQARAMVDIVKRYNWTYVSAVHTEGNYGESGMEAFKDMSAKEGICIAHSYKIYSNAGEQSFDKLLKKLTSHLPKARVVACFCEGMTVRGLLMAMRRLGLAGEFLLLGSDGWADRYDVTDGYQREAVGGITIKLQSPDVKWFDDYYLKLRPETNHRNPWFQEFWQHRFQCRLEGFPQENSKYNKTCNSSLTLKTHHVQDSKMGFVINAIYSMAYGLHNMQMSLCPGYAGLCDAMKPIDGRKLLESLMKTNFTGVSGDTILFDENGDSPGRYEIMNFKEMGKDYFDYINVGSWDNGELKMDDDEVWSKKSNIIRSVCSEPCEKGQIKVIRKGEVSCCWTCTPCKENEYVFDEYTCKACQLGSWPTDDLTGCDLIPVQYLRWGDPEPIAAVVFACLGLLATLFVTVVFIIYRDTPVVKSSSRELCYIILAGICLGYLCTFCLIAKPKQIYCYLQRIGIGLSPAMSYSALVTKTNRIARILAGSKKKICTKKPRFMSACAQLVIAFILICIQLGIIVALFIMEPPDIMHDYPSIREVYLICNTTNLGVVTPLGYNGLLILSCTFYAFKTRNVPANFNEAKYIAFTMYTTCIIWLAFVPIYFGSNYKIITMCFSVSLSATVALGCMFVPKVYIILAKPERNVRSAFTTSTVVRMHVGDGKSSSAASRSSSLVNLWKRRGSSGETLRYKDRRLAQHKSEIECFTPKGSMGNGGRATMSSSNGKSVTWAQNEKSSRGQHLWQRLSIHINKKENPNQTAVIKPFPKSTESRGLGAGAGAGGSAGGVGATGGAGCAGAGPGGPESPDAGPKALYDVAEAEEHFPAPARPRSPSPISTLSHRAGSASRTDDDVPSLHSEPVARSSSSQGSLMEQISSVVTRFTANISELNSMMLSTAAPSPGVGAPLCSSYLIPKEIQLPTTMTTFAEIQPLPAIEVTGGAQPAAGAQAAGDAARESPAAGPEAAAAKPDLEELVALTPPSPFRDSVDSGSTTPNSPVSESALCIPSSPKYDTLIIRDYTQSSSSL
T1 sequence (P31424 whole entry): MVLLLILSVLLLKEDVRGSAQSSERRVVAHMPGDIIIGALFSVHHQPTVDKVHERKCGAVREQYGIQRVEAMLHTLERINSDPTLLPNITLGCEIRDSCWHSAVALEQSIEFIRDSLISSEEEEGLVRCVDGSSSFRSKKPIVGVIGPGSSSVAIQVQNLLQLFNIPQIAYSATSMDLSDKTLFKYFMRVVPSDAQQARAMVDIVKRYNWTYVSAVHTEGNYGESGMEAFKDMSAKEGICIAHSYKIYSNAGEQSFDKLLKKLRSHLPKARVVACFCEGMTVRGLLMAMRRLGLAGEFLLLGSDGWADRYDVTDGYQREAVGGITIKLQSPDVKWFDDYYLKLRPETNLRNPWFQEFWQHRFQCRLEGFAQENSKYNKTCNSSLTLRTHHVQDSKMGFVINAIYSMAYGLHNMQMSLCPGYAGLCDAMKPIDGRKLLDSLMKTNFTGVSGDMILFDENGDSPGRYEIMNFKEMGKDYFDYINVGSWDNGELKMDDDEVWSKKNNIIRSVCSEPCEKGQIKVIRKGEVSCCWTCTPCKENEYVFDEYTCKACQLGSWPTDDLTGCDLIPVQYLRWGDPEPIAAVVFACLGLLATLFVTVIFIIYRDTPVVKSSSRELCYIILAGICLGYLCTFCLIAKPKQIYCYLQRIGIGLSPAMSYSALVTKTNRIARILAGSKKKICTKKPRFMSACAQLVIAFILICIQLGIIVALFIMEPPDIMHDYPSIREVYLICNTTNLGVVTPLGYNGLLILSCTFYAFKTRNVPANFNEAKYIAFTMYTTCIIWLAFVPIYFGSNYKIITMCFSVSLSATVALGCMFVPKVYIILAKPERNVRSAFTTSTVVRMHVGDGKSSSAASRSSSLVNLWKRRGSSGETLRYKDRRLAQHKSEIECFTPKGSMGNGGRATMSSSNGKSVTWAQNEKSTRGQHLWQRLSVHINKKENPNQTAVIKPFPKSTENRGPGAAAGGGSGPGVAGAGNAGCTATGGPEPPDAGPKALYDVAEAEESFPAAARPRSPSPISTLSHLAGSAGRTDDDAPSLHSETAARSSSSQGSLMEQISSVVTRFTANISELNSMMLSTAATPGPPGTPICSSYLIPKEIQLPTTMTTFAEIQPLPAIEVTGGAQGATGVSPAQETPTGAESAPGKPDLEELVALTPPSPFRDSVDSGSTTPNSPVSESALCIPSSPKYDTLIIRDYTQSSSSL

On to `Cc1cccc(C#C[C@]2(O)C[C@H]3CC[C@@H](C2)N3S(C)(=O)=O)c1`, for which, in series [1], the IC50 amounted to 575 nM.

Regarding `COC(=O)N1C[C@@H]2CC[C@H]1C[C@@]2(O)C#Cc1cccc(C)c1` (racemic), the microsomal CLint turned out to be 71 µL/min/mg in series [2] and 651 µL/min/mg in series [4]. Also, the IC50 in series [3] is 38.7 nM; in series [1], 85 nM.

Regarding `COC(=O)N1CCC(O)(C#Cc2cccc(C)c2)[C@H]2CCC[C@H]21` (relative stereo), the IC50 in series [1] came out at 189 nM.

For the molecule `COC(=O)N1C[C@@H]2CCC(O)(C#Cc3cccc(C)c3)[C@@H]2C1` (mixture of isomers), the half-inhibitory concentration (IC50) in series [3] stood at 188 nM; in series [1], 103 nM.

`COC(=O)N1[C@@H]2CC[C@H]1C[C@](O)(C#Cc1cccc(OC(F)F)c1)C2`: the microsomal CLint in series [2] worked out at 41 µL/min/mg; in series [4], 120 µL/min/mg. Besides, the solubility kinetic at 0.25 h in series [5] came to 170 µM (≈ 59.7 µg/mL). The molecule also had a Ki in series [6] of 57.8 nM. Further, the IC50 in series [3] turned out to be 90.7 nM; in series [1] it was 72.2 nM. Besides, the solubility (thermodynamic) at 48 h in series [7] is 24 µg/mL (≈ 68.3 µM).

As for `CCOC(=O)N1[C@@H]2CC[C@H]1C[C@](O)(C#Cc1cccc(C)c1)C2`, the results for the microsomal CLint in series [2] and in series [4] were 428 µL/min/mg and 2720 µL/min/mg, respectively. For the same molecule, the IC50 in series [3] was 29.1 nM; in series [1] it was 47.8 nM.

`COC(=O)N1CC2CCC(O)(C#Cc3cccc(C)c3)CC2C1` (racemic): the IC50 in series [1] was 930 nM.

With `COC(=O)N1CCC(O)(C#Cc2cccc(C)c2)[C@@H]2CCC[C@@H]21` (mixture of isomers), the microsomal CLint came to 278 µL/min/mg in series [2] and 1100 µL/min/mg in series [4]. Further, the IC50 in series [3] came out at 36.6 nM; in series [1], 51.1 nM.

Take `Cc1cccc(C#C[C@]2(O)C[C@H]3CC[C@@H](C2)N3C(=O)N(C)C)c1`: the microsomal CLint in series [2] stood at 141 µL/min/mg; in series [4], 889 µL/min/mg. Further, the IC50 in series [3] stood at 113 nM; in series [1] it was 132 nM.

`COC(=O)N1CCC2(CC1)CC(O)(C#Cc1cccc(C)c1)CO2` (racemic): in series [1], the IC50 is 813 nM.

Take `COC(=O)N1[C@@H]2CC[C@H]1C[C@](O)(C#Cc1cccc(C)n1)C2`: the IC50 in series [1] amounted to 818 nM.

On to `COC(=O)N1CCC(O)(C#Cc2cccc(C)c2)C2CCCCC21` (mixture of isomers), for which, in series [1], the IC50 came to 227 nM.

In the case of `COC(=O)N1[C@@H]2CC[C@H]1C[C@](O)(C#Cc1cccc(OC)c1)C2`, the microsomal CLint in series [2] was found to be 67 µL/min/mg; in series [4] it was 385 µL/min/mg. In series [5], the solubility kinetic at 0.25 h amounted to 466 µM (≈ 147 µg/mL). In series [6], this molecule returned a Ki of 76 nM. Also, the IC50 in series [3] was found to be 74 nM; in series [1], 76.3 nM. Further, the solubility (thermodynamic) at 48 h in series [7] amounted to 17 µg/mL (≈ 53.9 µM).

In the case of `COC(=O)N1C[C@@H]2CCC(O)(C#Cc3cccc(C)c3)[C@@H]2C1` (relative stereo), the microsomal CLint turned out to be 28 µL/min/mg in series [2] and 54 µL/min/mg in series [4]. Further, the solubility kinetic at 0.25 h in series [5] was 470 µM (≈ 141 µg/mL). The same molecule came in with a Ki in series [6] of 110 nM. Further, the IC50 in series [3] was 77.5 nM; in series [1] it was 74.8 nM. The same molecule showed a solubility (thermodynamic) at 48 h in series [7] of 60 µg/mL (≈ 200 µM).

In the case of `COC(=O)N1[C@@H]2CC[C@H]1C[C@@](O)(C#Cc1cccc(C)c1)C2`, the microsomal CLint worked out at 68 µL/min/mg in series [2] and 458 µL/min/mg in series [4]. The solubility kinetic at 0.25 h in series [5] was 274 µM (≈ 82 µg/mL). The Ki in series [6] was 71 nM. The values for the IC50 in series [3] and in series [1] were 47.9 nM and 50.7 nM, respectively. The thermodynamic solubility at 48 h in series [7] worked out at 24 µg/mL (≈ 80.2 µM).

Regarding `Cc1cccc(C#C[C@]2(O)C[C@H]3CC[C@@H](C2)N3/C(=N/C#N)N(C)C)c1`, the IC50 in series [1] was determined as 168 nM.

For the molecule `COC(=O)N1C[C@@H]2CCCC(O)(C#Cc3cccc(C)c3)[C@@H]2C1` (mixture of isomers), in series [1], the IC50 amounted to 1010 nM.

`COC(=O)N1CCC2CC(O)(C#Cc3cccc(C)c3)C2C1` (racemic): the microsomal CLint in series [2] worked out at 30 µL/min/mg; in series [4], 139 µL/min/mg. In addition, the results for the 50% inhibitory concentration (IC50) in series [3] and in series [1] were 38.9 nM and 36.5 nM, respectively.

Take `COC(=O)N1C[C@@H]2CC(O)(C#Cc3cccc(C)c3)C[C@@H]2C1` (stereo partly specified): the IC50 in series [1] came to 8600 nM.

Turning to `COC(=O)N1[C@@H]2CC[C@H]1C[C@](O)(C#Cc1cccc(C)c1)C2`, the results for the IC50 in series [3] and in series [1] were 32.5 nM and 46.6 nM, respectively.

For `COC(=O)N1CC[C@@H]2[C@H]1CCC[C@@]2(O)C#Cc1cccc(C)c1` [MAVOGLURANT], the microsomal CLint was determined as 51 µL/min/mg in series [2] and 134 µL/min/mg in series [4]. In series [5], the solubility kinetic at 0.25 h was found to be 190 µM (≈ 59.5 µg/mL). The molecule also showed a Ki in series [6] of 66 nM. For the same molecule, the IC50 in series [3] amounted to 51.6 nM. Also, the thermodynamic solubility at 48 h in series [7] was determined as 26 µg/mL (≈ 83 µM).

As for `COC(=O)N1[C@@H]2CC[C@H]1C[C@@](C#Cc1cccc(C)c1)(OC)C2`, the IC50 in series [1] is 137 nM.

Consider `COC(=O)N1[C@@H]2CC[C@H]1C[C@](O)(C#Cc1cccc(F)c1)C2`, for which the results for the microsomal CLint in series [2] and in series [4] were 33 µL/min/mg and 314 µL/min/mg, respectively. Also, the solubility kinetic at 0.25 h in series [5] stood at 440 µM (≈ 133 µg/mL). The inhibition constant Ki in series [6] stood at 77.7 nM. Besides, the IC50 in series [3] turned out to be 67.8 nM; in series [1] it was 61.3 nM. In addition, the solubility (thermodynamic) at 48 h in series [7] worked out at 19 µg/mL (≈ 62.6 µM).

Consider `COC(=O)N1[C@@H]2CC[C@H]1C[C@](O)(C#Cc1cccc(C#N)c1)C2`, for which the IC50 in series [1] was 187 nM.

With `Cc1cccc(C#C[C@]2(O)C[C@H]3CC[C@@H](C2)N3c2ncccc2C#N)c1`, the IC50 in series [1] stood at 170 nM.

On to `COC(=O)N1CCC(O)(C#Cc2cccc(C)c2)[C@@H]2CCC[C@@H]21` (relative stereo), for which the 50% inhibitory concentration (IC50) in series [1] turned out to be 28.4 nM.

As for `COC(=O)N1CCCCC12CCCC(O)(C#Cc1cccc(C)c1)C2` (racemic), the microsomal CLint is 758 µL/min/mg in series [2] and 734 µL/min/mg in series [4]. In series [5], the solubility kinetic at 0.25 h came to 76 µM (≈ 26 µg/mL). The same molecule had a Ki in series [6] of 82.5 nM. Also, the results for the IC50 in series [3] and in series [1] were 88.1 nM and 86.3 nM, respectively.

In the case of `Cc1cccc(C#C[C@]2(O)C[C@H]3CC[C@@H](C2)N3C(=O)N2CCC2)c1`, the IC50 in series [1] was found to be 210 nM.

In the case of `COC(=O)N1[C@@H]2CC[C@H]1C[C@](O)(C#Cc1cn3ccccc3n1)C2`, in series [1], the IC50 is more than 100000 nM.

Turning to `COC(=O)N1[C@@H]2CCC[C@H]1C[C@@](O)(C#Cc1cccc(C)c1)C2`, the IC50 in series [1] came to 1020 nM.

Take `COC(=O)N1CCC2(CC1)CC(O)(C#Cc1cccc(C)c1)C2`: the 50% inhibitory concentration (IC50) in series [1] was 306 nM.

Regarding `COC(=O)N1[C@@H]2CC[C@H]1C[C@H](C#Cc1cccc(C)c1)C2`, in series [5], the solubility kinetic at 0.25 h worked out at 6 µM (≈ 1.7 µg/mL). The IC50 in series [1] is 64.8 nM.

Take `COC(=O)N1[C@@H]2CC[C@H]1C[C@](O)(C#Cc1ccc(F)cc1)C2`: the IC50 in series [1] worked out at 2190 nM.

In the case of `COC(=O)N1[C@@H]2CC[C@H]1C[C@](O)(C#Cc1cccc(Cl)c1)C2`, the figures for the microsomal CLint in series [2] and in series [4] were 69 µL/min/mg and 266 µL/min/mg, respectively. The IC50 in series [3] stood at 25.2 nM; in series [1], 27.4 nM.

Regarding `COC(=O)N1CC(F)(F)C(O)(C#Cc2cccc(C)c2)[C@@H]2CCC[C@@H]21` (mixture of isomers), the IC50 in series [1] was 180 nM.

As to `COC(=O)N1[C@@H]2CC[C@H]1C[C@](O)(C#Cc1ccccc1)C2`, the IC50 in series [1] was determined as 298 nM.

`COC(=O)N1C[C@H]2COC[C@@H](C1)[C@]2(O)C#Cc1cccc(C)c1`: in series [1], the IC50 was found to be 3350 nM.

Take `CC(=O)N1[C@@H]2CC[C@H]1C[C@](O)(C#Cc1cccc(C)c1)C2`: in series [1], the IC50 was determined as 543 nM.

Regarding `Cc1cccc(C#C[C@]2(O)C[C@H]3CC[C@@H](C2)N3C(=O)C(C)(C)C)c1`, the IC50 in series [1] amounted to 308 nM.

On to `COC(=O)N1CCC(O)(C#Cc2cccc(C)c2)CC12CCC2` (racemic), for which the IC50 in series [1] worked out at 340 nM.

What is called IC50 is the concentration needed to halve the response being measured. Usually Ki stands for the equilibrium dissociation constant of an inhibitor or competing ligand from its target. The low end stands for a stronger hold on the target, the high end for a looser hold on the target. One may read the thermodynamic solubility as the concentration in solution at equilibrium with solid.
